These results are taken from PMC10303200 (ACS Central Science, 2023).

What all share (type): binding
The target in test [1] is T1, GAL-3C (Homo sapiens, UniProt P17931). As to the kind of experiment: Direct native ESI-MS with a mixture of ten glycans (G2, G5-G13), 200 mM ammonium acetate, pH 6.9. To be noted: SD, n = 8; read-out: Kd (nMS), Table S3. Further details: gene LGALS3; C-terminal carbohydrate recognition domain fragment, residues 107-250.
The target in test [2] is T2, GAL-7 (Homo sapiens, UniProt P47929).
T2 construct: gene LGALS7; homodimer (monomer MW 14.94 kDa)
T2 sequence (P47929 whole entry): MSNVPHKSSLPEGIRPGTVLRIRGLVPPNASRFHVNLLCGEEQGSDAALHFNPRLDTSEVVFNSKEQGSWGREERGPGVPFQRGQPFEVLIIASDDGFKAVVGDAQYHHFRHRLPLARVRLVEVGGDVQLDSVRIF
Description: Direct native ESI-MS of the GAL-7 homodimer with a mixture of ten glycans (G2, G5-G13), 200 mM ammonium acetate, pH 6.9. To be noted: SD, n = 8; read-out: Kd (nMS), Table S4.

Test [3] addresses T2, GAL-7. Description: COIN-nMS of the GAL-7 homodimer with a mixture of ten glycans (G2, G5-G13), 200 mM ammonium acetate, pH 6.9. To be noted: SD, n = 8; read-out: Kd (COIN-nMS), Table S4.
Test [4] addresses T1, GAL-3C. Description: COIN-nMS with a mixture of ten glycans (G2, G5-G13), 200 mM ammonium acetate, pH 6.9. Further details: gene LGALS3; C-terminal carbohydrate recognition domain fragment, residues 107-250. To be noted: SD, n = 8; read-out: Kd (COIN-nMS), Table S3.
In test [5] the target is T3, Sig7-Fc (Homo sapiens, UniProt Q9Y286). As to the kind of experiment: COIN-CaR-nMS with purified oligosaccharides listed beside the library glycans, 200 mM ammonium acetate, pH 6.9. Further details: gene SIGLEC7; residues 1-345, human IgG1 Fc fusion and C-terminal His6, from CHO cells, MW 150 kDa.
Target sequence in this assay (Q9Y286 1-345): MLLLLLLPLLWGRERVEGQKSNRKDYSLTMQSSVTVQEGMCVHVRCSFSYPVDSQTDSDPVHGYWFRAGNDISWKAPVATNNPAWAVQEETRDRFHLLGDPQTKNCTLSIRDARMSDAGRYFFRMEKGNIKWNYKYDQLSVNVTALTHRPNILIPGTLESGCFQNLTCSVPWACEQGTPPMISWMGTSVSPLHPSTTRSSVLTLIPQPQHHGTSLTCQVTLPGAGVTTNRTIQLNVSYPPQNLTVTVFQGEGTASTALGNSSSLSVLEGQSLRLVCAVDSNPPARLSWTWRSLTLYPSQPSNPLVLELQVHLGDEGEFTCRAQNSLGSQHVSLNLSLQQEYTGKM
Test [6] addresses T3, Sig7-Fc. As to the kind of experiment: COIN-CaR-nMS. Further details: Siglec 7-Fc (Sig7-Fc, residue 1–345, MW 150 kDa); His6 (C); made in house; host or cells: wild-type CHO cells.
Target sequence in this assay (Q9Y286 19-345): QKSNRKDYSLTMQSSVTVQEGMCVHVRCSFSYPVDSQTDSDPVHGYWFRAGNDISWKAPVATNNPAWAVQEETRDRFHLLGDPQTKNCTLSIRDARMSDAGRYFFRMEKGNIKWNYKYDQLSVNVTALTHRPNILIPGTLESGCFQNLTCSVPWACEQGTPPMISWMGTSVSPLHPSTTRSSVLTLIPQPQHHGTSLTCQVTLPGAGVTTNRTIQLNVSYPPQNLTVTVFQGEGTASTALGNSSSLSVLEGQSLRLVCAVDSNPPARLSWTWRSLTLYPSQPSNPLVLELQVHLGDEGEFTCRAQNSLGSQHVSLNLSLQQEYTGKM
[7] abbreviates: SD; read-out: Kd, purified oligosaccharides in Tables S12, S13, S18, S19.
The mark [8] stands for this setting: read-out: Kd, purified oligosaccharides in Tables S12, S13, S18, S19; SD.
Setting [9] is: N-glycan natural libraries and purified oligosaccharides, pH 6.9, read-out: Kd.

T1 sequence (P17931 107-250): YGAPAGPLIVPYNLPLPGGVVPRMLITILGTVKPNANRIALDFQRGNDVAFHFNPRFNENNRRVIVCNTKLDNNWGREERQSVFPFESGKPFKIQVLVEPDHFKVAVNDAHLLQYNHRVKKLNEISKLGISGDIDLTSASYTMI

The Kd is a measure of binding affinity in units of concentration. Take `CC(=O)N[C@H]1[C@H](O[C@H]2[C@@H](O)[C@@H](CO)O[C@@H](O[C@H]3[C@H](O[C@@H]4O[C@@H](C)[C@@H](O)[C@@H](O)[C@@H]4O)[C@@H](O)C(O)O[C@@H]3CO)[C@@H]2O)O[C@H](CO)[C@@H](O)[C@@H]1O[C@@H]1O[C@H](CO)[C@H](O)[C@H](O)[C@H]1O` (stereo partly drawn) [G6, β-D-Gal(1→3)-β-D-GlcNAc(1→3)-β-D-Gal(1→4)-[α-L-Fuc(1→3)]-β-D-Glc]: the dissociation constant Kd is 26.8 µM on GAL-3C [1], 232 µM at GAL-7 [2], 278 µM on GAL-7 [3] and 101 µM on GAL-3C [4].
In the case of `CC(=O)N[C@H]1[C@H](O[C@H]2[C@@H](O)[C@@H](CO)O[C@@H](O[C@H]3[C@H](O)[C@@H](NC(C)=O)[C@H](O[C@H]4[C@@H](O)[C@@H](CO)O[C@@H](O[C@H]5[C@H](O)[C@@H](O)C(O)O[C@@H]5CO)[C@@H]4O)O[C@@H]3CO)[C@@H]2O)O[C@H](CO)[C@@H](O[C@@H]2O[C@H](CO)[C@H](O)[C@H](O)[C@H]2O)[C@@H]1O` (stereo partly drawn) [G7, β-D-Gal-(1→4)-β-D-GlcNAc(1→3)-β-D-Gal(1→4)-β-D-GlcNAc(1→3)-β-D-Gal(1→4)-β-D-Glc], the Kd was determined as 5 µM on GAL-3C [1], 348 µM at GAL-7 [2], 362 µM on GAL-7 [3] and 2.9 µM at GAL-3C [4].
The corresponding values for `CC(=O)N[C@H]1[C@H](O[C@H]2[C@@H](O)[C@@H](CO)O[C@@H](O[C@H]3[C@H](O)[C@@H](NC(C)=O)[C@H](O[C@H]4[C@@H](O)[C@@H](CO)O[C@@H](O[C@H]5[C@H](O)[C@@H](NC(C)=O)[C@H](O[C@H]6[C@@H](O)[C@@H](CO)O[C@@H](O[C@H]7[C@H](O)[C@@H](O)C(O)O[C@@H]7CO)[C@@H]6O)O[C@@H]5CO)[C@@H]4O)O[C@@H]3CO)[C@@H]2O)O[C@H](CO)[C@@H](O[C@@H]2O[C@H](CO)[C@H](O)[C@H](O)[C@H]2O)[C@@H]1O` (stereo partly drawn) [G8, β-D-Gal-(1→4)-β-D-GlcNAc-(1→3)-β-D-Gal-(1→4)-β-D-GlcNAc-(1→3)-β-D-Gal-(1→4)-β-D-GlcNAc-(1→3)-β-D-Gal-(1→4)-β-D-Glc] are 5.5 µM, 178 µM, 232 µM and 5.8 µM.
In the case of `CC(=O)N[C@H]1[C@H](O[C@H]2[C@@H](O)[C@@H](CO)O[C@@H](O[C@H]3[C@H](O)[C@@H](O)C(O)O[C@@H]3CO)[C@@H]2O)O[C@H](CO)[C@@H](O[C@@H]2O[C@H](CO)[C@H](O)[C@H](O)[C@H]2O)[C@@H]1O` (stereo partly drawn) [G9, β-D-Gal-(1→4)-β-D-GlcNAc-(1→3)-β-D-Gal-(1→4)-β-D-Glc], the Kd amounted to 23.2 µM at GAL-3C [1], 348 µM on GAL-7 [2], 439 µM on GAL-7 [3] and 12.9 µM at GAL-3C [4].
The like results for `CC(=O)N[C@H]1[C@@H](O[C@H]2[C@@H](O)[C@@H](CO)O[C@@H](O[C@H]3[C@H](O)[C@@H](O)C(O)O[C@@H]3CO)[C@@H]2O[C@@H]2O[C@@H](C)[C@@H](O)[C@@H](O)[C@@H]2O)O[C@H](CO)[C@H](O)[C@@H]1O` (stereo partly drawn) [G12, α-D-GalNAc-(1→3)-[α-L-Fuc-(1→2)]-β-D-Gal-(1→4)-β-D-Glc] were, in that order, 11.3 µM, 184 µM, 333 µM and 10.4 µM.
The like results for `CC(=O)N[C@H]1[C@@H](O[C@H]2[C@@H](O)[C@@H](CO)O[C@@H](O[C@H]3[C@H](O)[C@@H](CO)O[C@@H](O[C@H]4[C@@H](O)[C@@H](CO)O[C@@H](O[C@H]5[C@H](O)[C@@H](O)C(O)O[C@@H]5CO)[C@@H]4O)[C@@H]3NC(C)=O)[C@@H]2O[C@@H]2O[C@@H](C)[C@@H](O)[C@@H](O)[C@@H]2O)O[C@H](CO)[C@H](O)[C@@H]1O` (stereo partly drawn) [G13, α-D-GalNAc-(1→3)-[α-L-Fuc-(1→2)]-β-D-Gal-(1→3)-β-D-GlcNAc-(1→3)-β-D-Gal-(1→4)-β-D-Glc] were, in that order, 4.6 µM, 261 µM, 261 µM and 2.4 µM.
Consider `CC(=O)N[C@H]1[C@H](O[C@@H]2[C@H](O[C@]3(C(=O)O)C[C@H](O)[C@@H](NC(C)=O)[C@H]([C@H](O)[C@@H](CO)O[C@]4(C(=O)O)C[C@H](O)[C@@H](NC(C)=O)[C@H]([C@H](O)[C@H](O)CO)O4)O3)[C@@H](O)[C@H](O[C@H]3[C@H](O)[C@@H](O)C(O)O[C@@H]3CO)O[C@@H]2CO)O[C@H](CO)[C@H](O)[C@@H]1O` (stereo partly drawn) [G29, GD2 oligosaccharide, α-D-GalNAc(1→4)-[α-D-Neu5Ac-(2→8)-α-D-Neu5Ac-(2→3)]-β-D-Gal-(1→4)-D-Glc], for which, at Sig7-Fc [5] (setting [7]), the Kd is 205 µM.
`CC(=O)N[C@H]1[C@H](O[C@@H]2[C@H](O[C@]3(C(=O)O)C[C@H](O)[C@@H](NC(C)=O)[C@H]([C@H](O)[C@@H](CO)O[C@]4(C(=O)O)C[C@H](O)[C@@H](NC(C)=O)[C@H]([C@H](O)[C@H](O)CO)O4)O3)[C@@H](O)[C@H](O[C@H]3[C@H](O)[C@@H](O)C(O)O[C@@H]3CO)O[C@@H]2CO)O[C@H](CO)[C@H](O)[C@@H]1O[C@@H]1O[C@H](CO)[C@H](O)[C@H](O)[C@H]1O` (stereo partly drawn) [GD1b, GD1b oligosaccharide, β-D-Gal(1→3)-α-D-GalNAc(1→4)-[α-D-Neu5Ac-(2→8)-α-D-Neu5Ac-(2→3)]-β-D-Gal-(1→4)-D-Glc]: at Sig7-Fc [5] (setting [7]), the Kd was 1220 µM.
The same measure, in the same setting: next, `CC(=O)N[C@H]1[C@H]([C@H](O)[C@H](O)CO)O[C@@](O[C@H](CO)[C@@H](O)[C@@H]2O[C@@](O[C@H]3[C@@H](O)[C@@H](CO)O[C@@H](O[C@H]4[C@H](O)[C@@H](O)C(O)O[C@@H]4CO)[C@@H]3O)(C(=O)O)C[C@H](O)[C@H]2NC(C)=O)(C(=O)O)C[C@@H]1O` (stereo partly drawn) [GD3, GD3 oligosaccharide, α-D-Neu5Ac-(2→8)-α-D-Neu5Ac-(2→3)-β-D-Gal-(1→4)-D-Glc]: 97 µM; `CC(=O)N[C@H]1[C@H](O[C@@H]2[C@H](O[C@]3(C(=O)O)C[C@H](O)[C@@H](NC(C)=O)[C@H]([C@H](O)[C@H](O)CO)O3)[C@@H](O)[C@H](O[C@H]3[C@H](O)[C@@H](O)C(O)O[C@@H]3CO)O[C@@H]2CO)O[C@H](CO)[C@H](O)[C@@H]1O[C@@H]1O[C@H](CO)[C@H](O)[C@H](O)[C@H]1O` (stereo partly drawn) [GM1, GM1 oligosaccharide, β-D-Gal(1→3)-α-D-GalNAc(1→4)-[α-D-Neu5Ac-(2→3)]-β-D-Gal-(1→4)-D-Glc]: 437 µM.
For the compound `CC(=O)NC1C(OC2C(CO)OC(OC3C(CO)OC(O)C(O)C3O)C(O)C2OC2(C(=O)O)CC(O)C(NC(C)=O)C(C(O)C(O)CO)O2)OC(CO)C(O)C1O` [GM2, GM2 oligosaccharide, α-D-GalNAc(1→4)-[α-D-Neu5Ac-(2→3)]-β-D-Gal-(1→4)-D-Glc], the Kd on Sig7-Fc [5] (setting [8]) was found to be 460 µM.
On the same count and under the same terms, the same measure for `CC(=O)NC1C(OC2C(CO)OC(OC3C(CO)OC(O)C(O)C3O)C(O)C2OC2(C(=O)O)CC(O)C(NC(C)=O)C(C(O)C(CO)OC3(C(=O)O)CC(O)C(NC(C)=O)C(C(O)C(CO)OC4(C(=O)O)CC(O)C(NC(C)=O)C(C(O)C(O)CO)O4)O3)O2)OC(CO)C(O)C1O` [GT2, GT2 oligosaccharide, α-D-GalNAc(1→4)-[α-D-Neu5Ac-(2→8)-α-D-Neu5Ac-(2→8)-α-D-Neu5Ac-(2→3)]-β-D-Gal-(1→4)-D-Glc]: 235 µM.
In turn, `CC(=O)NC1C(O)CC(OC(CO)C(O)C2OC(OC(CO)C(O)C3OC(OC4C(O)C(CO)OC(OC5C(CO)OC(O)C(O)C5O)C4O)(C(=O)O)CC(O)C3NC(C)=O)(C(=O)O)CC(O)C2NC(C)=O)(C(=O)O)OC1C(O)C(O)CO` [GT3, GT3 oligosaccharide, α-D-Neu5Ac-(2→8)-α-D-Neu5Ac-(2→8)-α-D-Neu5Ac-(2→3)-β-D-Gal-(1→4)-D-Glc] registered a Kd at Sig7-Fc [5] (SD) of 184 µM.
Take `CC(=O)N[C@H]1[C@H](O[C@@H]2[C@H](O[C@]3(C(=O)O)C[C@H](O)[C@@H](NC(C)=O)[C@H]([C@H](O)[C@@H](CO)O[C@]4(C(=O)O)C[C@H](O)[C@@H](NC(C)=O)[C@H]([C@H](O)[C@H](O)CO)O4)O3)[C@@H](O)[C@H](O[C@H]3[C@H](O)[C@@H](O)C(O)O[C@@H]3CO)O[C@@H]2CO)O[C@H](CO)[C@H](O)[C@@H]1O` (stereo partly drawn) [Glycan G29, α-D-GalNAc(1→4)-[α-D-Neu5Ac-(2→8)-α-D-Neu5Ac-(2→3)]-β-D-Gal-(1→4)-D-Glc]: the dissociation constant (Kd) at Sig7-Fc [6] (G21 1.0 μM and G29 30 μM, read-out: Kd (COIN-CaR-nMS), two ligands) came out at 184 ± 5 µM; at Sig7-Fc [6] (G21 5 μM and G29 30 μM, read-out: Kd (COIN-CaR-nMS), two ligands), 240 ± 2 µM; at Sig7-Fc [6] (G21 10 μM and G29 30 μM, read-out: Kd (COIN-CaR-nMS), two ligands) it was 240 ± 10 µM.
Regarding “α-D-GalNAc(1→4)-[α-D-Neu5Ac-(2→3)]-β-D-Gal-(1→4)-D-Glc [Glycan G28]”, at Sig7-Fc [6] (setting [9]), the Kd was found to be 460 ± 117 µM.
As for “α-D-Neu5Ac-(2→8)-α-D-Neu5Ac-(2→8)-α-D-Neu5Ac-(2→3)-β-D-Gal-(1→4)-D-Glc [Glycan G27]”, at Sig7-Fc [6] (setting [9]), the Kd worked out at 184 ± 41 µM.
As to “β-D-Gal(1→3)-α-D-GalNAc(1→4)-[α-D-Neu5Ac-(2→8)-α-D-Neu5Ac-(2→8)-α-D-Neu5Ac-(2→3)]-β-D-Gal-(1→4)-D-Glc [Glycan G33]”, the Kd entry at Sig7-Fc [6] (N-glycan natural libraries and purified oligosaccharides, pH 6.9, listed as GT1c) is reported as “weak or no binding”.
